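Following 48 hours of exposure in 96-well plates, responses at five concentrations were used to interpolate endpoints linearly. TGI: concentration producing complete growth inhibition.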
Legend:
Assay in all cases: NCI anticancer screen, dose series, 48 h
SN12C renal = test system: SN12C renal
EKVX NSCLC = test system: EKVX NSCLC
K-562 leukemia = test system: K-562 leukemia
BT-549 breast = test system: BT-549 breast
DU-145 prostate = test system: DU-145 prostate
HOP-62 NSCLC = test system: HOP-62 NSCLC
SR leukemia = test system: SR leukemia
PC-3 prostate = test system: PC-3 prostate
ACHN renal = test system: ACHN renal
MDA-MB-231 breast = test system: MDA-MB-231 breast
IGROV1 ovarian = test system: IGROV1 ovarian
MOLT-4 leukemia = test system: MOLT-4 leukemia
HS 578T breast = test system: HS 578T breast
UO-31 renal = test system: UO-31 renal
NCI/ADR-RES ovarian = test system: NCI/ADR-RES ovarian
786-0 renal = test system: 786-0 renal
NCI-H226 lung = test system: NCI-H226 lung
SF-295 CNS = test system: SF-295 CNS
HL-60(TB) leukemia = test system: HL-60(TB) leukemia
SNB-75 CNS = test system: SNB-75 CNS
SW-620 colon = test system: SW-620 colon
SF-268 CNS = test system: SF-268 CNS
SK-MEL-5 melanoma = test system: SK-MEL-5 melanoma
COLO 205 colon = test system: COLO 205 colon
SNB-19 CNS = test system: SNB-19 CNS
U251 CNS = test system: U251 CNS
NCI-H522 lung = test system: NCI-H522 lung
NCI-H460 lung = test system: NCI-H460 lung
OVCAR-5 ovarian = test system: OVCAR-5 ovarian
MALME-3M melanoma = test system: MALME-3M melanoma
MCF7 breast = test system: MCF7 breast
MDA-MB-435 = test system: MDA-MB-435
CAKI-1 renal = test system: CAKI-1 renal
SK-MEL-28 melanoma = test system: SK-MEL-28 melanoma
LOX IMVI melanoma = test system: LOX IMVI melanoma
OVCAR-4 ovarian = test system: OVCAR-4 ovarian
KM12 colon = test system: KM12 colon
MDA-N = test system: MDA-N
HT29 colon = test system: HT29 colon
SK-MEL-2 melanoma = test system: SK-MEL-2 melanoma
OVCAR-8 ovarian = test system: OVCAR-8 ovarian
OVCAR-3 ovarian = test system: OVCAR-3 ovarian
HCT-116 colon = test system: HCT-116 colon
HCT-15 colon = test system: HCT-15 colon
HCC-2998 colon = test system: HCC-2998 colon
A498 renal = test system: A498 renal
RXF 393 renal = test system: RXF 393 renal
NCI-H23 lung = test system: NCI-H23 lung
UACC-62 melanoma = test system: UACC-62 melanoma
A549 NSCLC = test system: A549 NSCLC
T-47D breast = test system: T-47D breast
UACC-257 melanoma = test system: UACC-257 melanoma
TK-10 renal = test system: TK-10 renal
SK-OV-3 ovarian = test system: SK-OV-3 ovarian
HOP-92 NSCLC = test system: HOP-92 NSCLC
M14 melanoma = test system: M14 melanoma
SF-539 CNS = test system: SF-539 CNS
RPMI-8226 leukemia = test system: RPMI-8226 leukemia
CCRF-CEM leukemia = test system: CCRF-CEM leukemia

O=C(O)c1ccc(Nc2nc3cc(C(F)(F)F)ccc3nc2C(=O)O)cc1
TGI (SN12C renal): > 100 µM
TGI (EKVX NSCLC): > 100 µM
TGI (K-562 leukemia): > 100 µM
TGI (BT-549 breast): > 100 µM
TGI (DU-145 prostate): > 100 µM
TGI (HOP-62 NSCLC): > 100 µM
TGI (SR leukemia): > 100 µM
TGI (PC-3 prostate): > 100 µM
TGI (ACHN renal): > 100 µM
TGI (MDA-MB-231 breast): > 100 µM
TGI (IGROV1 ovarian): > 100 µM
TGI (MOLT-4 leukemia): > 100 µM
TGI (HS 578T breast): > 100 µM
TGI (UO-31 renal): > 100 µM
TGI (NCI/ADR-RES ovarian): > 100 µM
TGI (786-0 renal): > 100 µM
TGI (NCI-H226 lung): > 100 µM
TGI (SF-295 CNS): > 100 µM
TGI (HL-60(TB) leukemia): > 100 µM
TGI (SNB-75 CNS): > 100 µM
TGI (SW-620 colon): > 100 µM
TGI (SF-268 CNS): > 100 µM
TGI (SK-MEL-5 melanoma): > 100 µM
TGI (COLO 205 colon): > 100 µM
TGI (SNB-19 CNS): > 100 µM
TGI (U251 CNS): > 100 µM
TGI (NCI-H522 lung): > 100 µM
TGI (NCI-H460 lung): > 100 µM
TGI (OVCAR-5 ovarian): > 100 µM
TGI (MALME-3M melanoma): > 100 µM
TGI (MCF7 breast): > 100 µM
TGI (MDA-MB-435): > 100 µM
TGI (CAKI-1 renal): > 100 µM
TGI (SK-MEL-28 melanoma): > 100 µM
TGI (LOX IMVI melanoma): > 100 µM
TGI (OVCAR-4 ovarian): > 100 µM
TGI (KM12 colon): > 100 µM
TGI (MDA-N): > 100 µM
TGI (HT29 colon): > 100 µM
TGI (SK-MEL-2 melanoma): > 100 µM
TGI (OVCAR-8 ovarian): > 100 µM
TGI (OVCAR-3 ovarian): > 100 µM
TGI (HCT-116 colon): > 100 µM
TGI (HCT-15 colon): > 100 µM
TGI (HCC-2998 colon): > 100 µM
TGI (A498 renal): > 100 µM
TGI (RXF 393 renal): > 100 µM
TGI (NCI-H23 lung): > 100 µM

CC(=O)NC1=N/C(=C/c2cc([N+](=O)[O-])ccc2O)CN1C
TGI (SN12C renal): > 100 µM
TGI (EKVX NSCLC): > 100 µM
TGI (BT-549 breast): > 100 µM
TGI (DU-145 prostate): > 100 µM
TGI (HOP-62 NSCLC): > 100 µM
TGI (UACC-62 melanoma): > 100 µM
TGI (PC-3 prostate): > 100 µM
TGI (A549 NSCLC): > 100 µM
TGI (ACHN renal): > 100 µM
TGI (MDA-MB-231 breast): > 100 µM
TGI (T-47D breast): > 100 µM
TGI (IGROV1 ovarian): > 100 µM
TGI (MOLT-4 leukemia): > 100 µM
TGI (UACC-257 melanoma): > 100 µM
TGI (TK-10 renal): > 100 µM
TGI (UO-31 renal): > 100 µM
TGI (SK-OV-3 ovarian): > 100 µM
TGI (NCI/ADR-RES ovarian): > 100 µM
TGI (786-0 renal): > 100 µM
TGI (NCI-H226 lung): > 100 µM
TGI (SF-295 CNS): > 100 µM
TGI (HL-60(TB) leukemia): > 100 µM
TGI (SNB-75 CNS): > 100 µM
TGI (SW-620 colon): > 100 µM
TGI (HOP-92 NSCLC): > 100 µM
TGI (SK-MEL-5 melanoma): > 100 µM
TGI (COLO 205 colon): > 100 µM
TGI (SNB-19 CNS): > 100 µM
TGI (U251 CNS): > 100 µM
TGI (NCI-H460 lung): > 100 µM
TGI (OVCAR-5 ovarian): > 100 µM
TGI (MCF7 breast): > 100 µM
TGI (MDA-MB-435): > 100 µM
TGI (CAKI-1 renal): > 100 µM
TGI (SK-MEL-28 melanoma): > 100 µM
TGI (LOX IMVI melanoma): > 100 µM
TGI (OVCAR-4 ovarian): > 100 µM
TGI (KM12 colon): > 100 µM
TGI (MDA-N): > 100 µM
TGI (M14 melanoma): > 100 µM
TGI (HT29 colon): > 100 µM
TGI (SK-MEL-2 melanoma): > 100 µM
TGI (OVCAR-8 ovarian): > 100 µM
TGI (SF-539 CNS): > 100 µM
TGI (OVCAR-3 ovarian): > 100 µM
TGI (HCT-116 colon): > 100 µM
TGI (HCT-15 colon): > 100 µM
TGI (HCC-2998 colon): > 100 µM
TGI (NCI-H23 lung): > 100 µM

O=c1oc2ccccc2c(O)c1/C=N\c1nc(-c2ccccc2)cs1
TGI (SN12C renal): 23.1 µM
TGI (EKVX NSCLC): 42.6 µM
TGI (K-562 leukemia): > 100 µM
TGI (DU-145 prostate): 30.8 µM
TGI (HOP-62 NSCLC): 64.4 µM
TGI (SR leukemia): 5.31 µM
TGI (UACC-62 melanoma): 19.3 µM
TGI (PC-3 prostate): 31.2 µM
TGI (A549 NSCLC): > 100 µM
TGI (ACHN renal): 24 µM
TGI (MDA-MB-231 breast): 54.8 µM
TGI (T-47D breast): 47.1 µM
TGI (IGROV1 ovarian): 27.8 µM
TGI (MOLT-4 leukemia): 7.03 µM
TGI (UACC-257 melanoma): 23 µM
TGI (TK-10 renal): 7.58 µM
TGI (HS 578T breast): 89.7 µM
TGI (UO-31 renal): 20.4 µM
TGI (SK-OV-3 ovarian): > 100 µM
TGI (NCI/ADR-RES ovarian): 63.5 µM
TGI (786-0 renal): 40.2 µM
TGI (NCI-H226 lung): 23 µM
TGI (SF-295 CNS): 69.2 µM
TGI (HL-60(TB) leukemia): 4.01 µM
TGI (SNB-75 CNS): 21.6 µM
TGI (RPMI-8226 leukemia): 39.5 µM
TGI (SW-620 colon): 16.2 µM
TGI (SF-268 CNS): 31.1 µM
TGI (HOP-92 NSCLC): 25.2 µM
TGI (SK-MEL-5 melanoma): 9.65 µM
TGI (COLO 205 colon): 11.5 µM
TGI (SNB-19 CNS): 62.4 µM
TGI (U251 CNS): 24.9 µM
TGI (NCI-H522 lung): 5.71 µM
TGI (NCI-H460 lung): > 100 µM
TGI (OVCAR-5 ovarian): 35.1 µM
TGI (MALME-3M melanoma): 27.3 µM
TGI (CCRF-CEM leukemia): 9.74 µM
TGI (MCF7 breast): 14.1 µM
TGI (MDA-MB-435): 20.6 µM
TGI (CAKI-1 renal): 12.2 µM
TGI (SK-MEL-28 melanoma): 31.1 µM
TGI (LOX IMVI melanoma): 23.6 µM
TGI (OVCAR-4 ovarian): > 100 µM
TGI (KM12 colon): 39.1 µM
TGI (MDA-N): 16 µM
TGI (M14 melanoma): 16.2 µM
TGI (HT29 colon): 32 µM
TGI (SK-MEL-2 melanoma): 36 µM
TGI (OVCAR-8 ovarian): > 100 µM
TGI (SF-539 CNS): 6.39 µM
TGI (OVCAR-3 ovarian): 30.8 µM
TGI (HCT-116 colon): 22 µM
TGI (HCC-2998 colon): > 100 µM
TGI (A498 renal): > 100 µM
TGI (RXF 393 renal): 26.9 µM
TGI (NCI-H23 lung): 46.9 µM

Reference: PubChem BioAssay (NCI)
